Assay results as given in ChEMBL document CHEMBL1201862, “PubChem BioAssay data set” (2004).
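Protocol summary: plate cells (96-well), add compound at 5 concentrations, incubate 48 h, interpolate endpoints linearly. GI50 = concentration required for 50% inhibition of growth.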 The source made the active and inactive calls. Cut-off read from the data, not from the text of the source: active = GI50 up to about 1.1 µM and inactive = higher.

Legend:
Assay in all cases: growth of human tumour cells (NCI), 48 h
A549 = tested on: A549
HT-29 = tested on: HT-29
EKVX = tested on: EKVX
UACC-62 = tested on: UACC-62
CCRF-CEM = tested on: CCRF-CEM
COLO 205 = tested on: COLO 205
LXFL 529 = tested on: LXFL 529
KM12 = tested on: KM12
HCT-15 = tested on: HCT-15
M14 = tested on: M14
RXF 631 = tested on: RXF 631
SK-MEL-28 = tested on: SK-MEL-28
A498 = tested on: A498
K562 = tested on: K562
SF-295 = tested on: SF-295
Malme-3M = tested on: Malme-3M
SNB-78 = tested on: SNB-78
SN12C = tested on: SN12C
SK-MEL-5 = tested on: SK-MEL-5
DLD-1 = tested on: DLD-1
RXF 393 = tested on: RXF 393
SK-OV-3 = tested on: SK-OV-3
UO-31 = tested on: UO-31
HCT-116 = tested on: HCT-116
RPMI-8226 = tested on: RPMI-8226
M19-MEL = tested on: M19-MEL
LOX IMVI = tested on: LOX IMVI
U-251 = tested on: U-251
HCC 2998 = tested on: HCC 2998
OVCAR-3 = tested on: OVCAR-3
NCI-H522 = tested on: NCI-H522
NCI-H460 = tested on: NCI-H460
SW-620 = tested on: SW-620
HOP-18 = tested on: HOP-18
HOP-92 = tested on: HOP-92
CAKI-1 = tested on: CAKI-1
MOLT-4 = tested on: MOLT-4
TK-10 = tested on: TK-10
786-0 = tested on: 786-0
OVCAR-8 = tested on: OVCAR-8
UACC-257 = tested on: UACC-257
ACHN = tested on: ACHN
DMS-273 = tested on: DMS-273
SNB-75 = tested on: SNB-75
SF-539 = tested on: SF-539
NCI-H23 = tested on: NCI-H23
IGROV-1 = tested on: IGROV-1
SNB-19 = tested on: SNB-19
NCI-H226 = tested on: NCI-H226
MCF7 = tested on: MCF7
SK-MEL-2 = tested on: SK-MEL-2
DMS-114 = tested on: DMS-114
NCI/ADR-RES = tested on: NCI/ADR-RES
SF-268 = tested on: SF-268
OVCAR-4 = tested on: OVCAR-4
HL-60 = tested on: HL-60
HOP-62 = tested on: HOP-62
KM-20L2 = tested on: KM-20L2
XF498 = tested on: XF498
OVCAR-5 = tested on: OVCAR-5

## COC1=CC(=C(C#N)/C(=N\c2ccccc2)SC)C=C(OC)C1=O
A549
  GI50: 78.9 µM (inactive)
HT-29
  GI50: > 100 µM (inactive)
EKVX
  GI50: > 100 µM (inactive)
UACC-62
  GI50: 44.3 µM (inactive)
CCRF-CEM
  GI50: 16 µM (inactive)
COLO 205
  GI50: > 100 µM (inactive)
LXFL 529
  GI50: 17.5 µM (inactive)
KM12
  GI50: 63.2 µM (inactive)
HCT-15
  GI50: 80.7 µM
M14
  GI50: > 10 µM (inactive)
RXF 631
  GI50: > 100 µM (inactive)
SK-MEL-28
  GI50: > 100 µM (inactive)
A498
  GI50: 20.9 µM (inactive)
K562
  GI50: 22.6 µM (inactive)
SF-295
  GI50: 69.2 µM (inactive)
Malme-3M
  GI50: > 100 µM (inactive)
SNB-78
  GI50: 67.9 µM (inactive)
SN12C
  GI50: > 100 µM (inactive)
SK-MEL-5
  GI50: 20.7 µM (inactive)
DLD-1
  GI50: 24.5 µM (inactive)
RXF 393
  GI50: 24.4 µM (inactive)
SK-OV-3
  GI50: > 100 µM (inactive)
UO-31
  GI50: 36.5 µM (inactive)
HCT-116
  GI50: 29.9 µM (inactive)
RPMI-8226
  GI50: 18.8 µM (inactive)
M19-MEL
  GI50: 70.6 µM (inactive)
LOX IMVI
  GI50: 39.5 µM (inactive)
U-251
  GI50: 0.352 µM (active)
HCC 2998
  GI50: 94.8 µM (inactive)
OVCAR-3
  GI50: 31.2 µM (inactive)
NCI-H522
  GI50: 37.6 µM (inactive)
NCI-H460
  GI50: 70.6 µM (inactive)
SW-620
  GI50: 38.7 µM (inactive)
HOP-18
  GI50: > 100 µM (inactive)
HOP-92
  GI50: 3.84 µM (inactive)
CAKI-1
  GI50: > 100 µM (inactive)
MOLT-4
  GI50: 20.8 µM (inactive)
TK-10
  GI50: > 100 µM (inactive)
786-0
  GI50: 31.6 µM (inactive)
OVCAR-8
  GI50: 31.1 µM (inactive)
UACC-257
  GI50: 56.6 µM (inactive)
ACHN
  GI50: 40.8 µM (inactive)
DMS-273
  GI50: 36.1 µM (inactive)
SNB-75
  GI50: 95.3 µM (inactive)
SF-539
  GI50: > 100 µM (inactive)
NCI-H23
  GI50: 54.5 µM (inactive)
IGROV-1
  GI50: 86.1 µM (inactive)

## N[C@@H](CSCSC[C@H](N)C(=O)O)C(=O)O
A549
  GI50: > 225 µM (inactive)
HT-29
  GI50: > 225 µM (inactive)
EKVX
  GI50: > 225 µM (inactive)
UACC-62
  GI50: > 225 µM (inactive)
SNB-19
  GI50: 174 µM (inactive)
NCI-H226
  GI50: > 225 µM (inactive)
CCRF-CEM
  GI50: 89.5 µM (inactive)
MCF7
  GI50: > 225 µM (inactive)
COLO 205
  GI50: > 225 µM (inactive)
KM12
  GI50: 126 µM (inactive)
HCT-15
  GI50: > 225 µM
SK-MEL-2
  GI50: > 225 µM (inactive)
SK-MEL-28
  GI50: > 225 µM (inactive)
A498
  GI50: > 225 µM (inactive)
K562
  GI50: > 225 µM (inactive)
SF-295
  GI50: > 225 µM (inactive)
Malme-3M
  GI50: > 225 µM (inactive)
DMS-114
  GI50: > 225 µM (inactive)
NCI/ADR-RES
  GI50: > 104 µM (inactive)
SNB-78
  GI50: 126 µM (inactive)
SF-268
  GI50: > 225 µM (inactive)
SN12C
  GI50: > 225 µM (inactive)
SK-MEL-5
  GI50: > 225 µM (inactive)
DLD-1
  GI50: > 225 µM (inactive)
RXF 393
  GI50: > 225 µM (inactive)
SK-OV-3
  GI50: > 225 µM (inactive)
UO-31
  GI50: > 225 µM (inactive)
HCT-116
  GI50: > 225 µM (inactive)
RPMI-8226
  GI50: > 225 µM (inactive)
M19-MEL
  GI50: > 225 µM (inactive)
LOX IMVI
  GI50: > 225 µM (inactive)
U-251
  GI50: > 225 µM (inactive)
HCC 2998
  GI50: > 225 µM (inactive)
OVCAR-3
  GI50: > 225 µM (inactive)
OVCAR-4
  GI50: > 225 µM (inactive)
HL-60
  GI50: 185 µM (inactive)
NCI-H522
  GI50: > 225 µM (inactive)
NCI-H460
  GI50: > 225 µM (inactive)
SW-620
  GI50: > 225 µM (inactive)
HOP-18
  GI50: > 225 µM (inactive)
HOP-92
  GI50: > 169 µM (inactive)
CAKI-1
  GI50: > 225 µM (inactive)
MOLT-4
  GI50: 195 µM (inactive)
HOP-62
  GI50: > 225 µM (inactive)
KM-20L2
  GI50: > 164 µM (inactive)
OVCAR-8
  GI50: 35.6 µM (inactive)
UACC-257
  GI50: > 225 µM (inactive)
DMS-273
  GI50: > 225 µM (inactive)
SNB-75
  GI50: > 225 µM (inactive)
XF498
  GI50: > 225 µM (inactive)
SF-539
  GI50: > 225 µM (inactive)
OVCAR-5
  GI50: > 225 µM (inactive)
NCI-H23
  GI50: > 225 µM (inactive)
IGROV-1
  GI50: > 225 µM (inactive)
